Measured values published in publication PMC11091889, “Silver Organometallics that are Highly Potent Thioredoxin and Glutathione Reductase Inhibitors: Exploring the Correlations of Solution Chemistry with the Strong Antibacterial Effects” (ACS Infectious Diseases, 2024).
Like-named read-outs stand apart in the source and are kept apart here.

How the values were obtained:
[1] = test system: A. baumannii (DSM 30007, ATCC 19606); experiment: Broth microdilution antibacterial assay; format: cell-based, Acinetobacter baumannii; conditions: for MIC: Acinetobacter baumannii; for MIC / MIC A. baumannii: 22 h; for MIC A. baumannii / EC50: mean ± standard error, n = 3, MHB; for EC50: read-out: EC50 A. baumannii
Procedure: (§1) The antibacterial effect of the silver NHC complexes and selected ligands was evaluated in two Gram-positive [Enterococcus faecium, methicillin resistant S. aureus, (MRSA)] and in four Gram-negative (Acinetobacter baumannii, Escherichia coli, Klebsiella pneumoniae, and Pseudomonas aeruginosa) pathogenic bacterial strains using broth microdilution assays. The resulting minimal inhibitory concentrations (MICs, Table 2) and EC50 (Table S6) were determined by a curve fitting procedure. Silver nitrate (AgNO3), SSD, and various antibiotics were used as references.
(§2) The following strains of ESKAPE panel were utilized and maintained at 37 °C in MHB (21 g/L Müller Hinton broth, pH 7.4) or TSY (30 g/L trypticase soy broth, 3 g/L yeast extract, pH 7.0–7.2) media: A. baumannii (DSM 30007, ATCC 19606), E. coli (DSM1116, ATCC 9637), K. pneumoniae (DSM 11678, ATCC33495), P. aeruginosa PA7 (DSM 24068) in MHB; E. faecium (DSM 20477, ATCC 19434), and S. aureus MRSA (DSM 11822, ICB 25701) in TSY. MIC values were determined following a standardized protocol in broth microdilution assays. The compounds and reference substances (AgNO3 and SSD) were serially diluted from 64 to 1 μg/mL. Starting inocula of 2–8 × 10^5 CFU/mL in MHB or TSY media at 37 °C were used, and serial dilutions were carried out in 96-well microtiter plates in duplicate. After incubation of the plates for 22 h at 37 °C, the absorbance at 600 nm was measured using The Spark multimode microplate reader (Tecan Trading AG). The MIC values for the tested compounds were determined in three independent experiments and presented in μM with standard errors and also in μg/mL. Amikacin (P. aeruginosa), linezolid (S. aureus), and ciprofloxacin (all other strains) served as positive controls. The MIC and EC50 values were determined by curve fitting with Sigma Plot. To determine the effect of the culture medium on the activity of silver compounds, the assay was performed using MHB, TSY, or DMEM (Gibco). To observe the effect of individual components of TSY medium, antibacterial tests were performed using MHB with addition of tryptone (17 g/L) or yeast extract (3 g/L, both were purchased from Sigma).

[2] = test system: P. aeruginosa PA7 (DSM 24068); experiment: microbe, parasite or virus in culture; format: cell-based, Pseudomonas aeruginosa; conditions: for MIC: Pseudomonas aeruginosa, DSM24068, 22 h; for MIC P. aeruginosa / EC50: mean ± standard error, n = 3, MHB; for MIC P. aeruginosa: 22 h; for EC50: read-out: EC50 P. aeruginosa
Procedure: as §1, §2

[3] = test system: E. faecium (DSM 20477, ATCC 19434); experiment: Broth microdilution antibacterial assay; format: cell-based, Enterococcus faecium; conditions: for MIC: Enterococcus faecium; for EC50: read-out: EC50 E. faecium
Procedure: as §1, §2

[4] = test system: E. coli (DSM1116, ATCC 9637); experiment: microbe, parasite or virus in culture; format: cell-based, Escherichia coli
Procedure: as §1, §2

[5] = test system: K. pneumoniae (DSM 11678, ATCC33495); experiment: Broth microdilution antibacterial assay; format: cell-based, Klebsiella pneumoniae; conditions: for MIC: Klebsiella pneumoniae; for MIC / MIC K. pneumoniae: 22 h; for MIC K. pneumoniae / EC50: mean ± standard error, n = 3, MHB; for EC50: read-out: EC50 K. pneumoniae
Procedure: as §1, §2

[6] = test system: S. aureus MRSA (DSM 11822, ICB 25701); experiment: microbe, parasite or virus in culture; format: cell-based, methicillin resistant S. aureus; conditions: for MIC: Staphylococcus aureus, read-out: MIC MRSA (value in brackets); for MIC / MIC MRSA: 22 h; for MIC MRSA / EC50: mean ± standard error, n = 3, TSY; for EC50: read-out: EC50 MRSA
Procedure: as §1
The importance of the culture medium used in antibacterial assays has been pointed out for antibiotics and in particular for silver.[53]−[55] In our recent studies, tryptic soy yeast (TSY) broth has been used for growing Gram-positive bacteria. Two components thereof, tryptone and yeast extract, have been reported to affect the antibacterial activity of silver nitrate.[55] Moreover, such an effect was also observed for other media containing at least one of those components.[11],[53] […] Silver nitrate served as a reference, and three different growth media were studied, namely, Müller-Hinton Broth (MHB, commonly used for Gram-negative bacteria), TSY broth (commonly used for Gram-positive bacteria), and DMEM supplemented with 10% FCS (commonly used for growth of mammalian and human cells).
as §2

[7] = read-out: MIC A. baumannii (value in brackets)
[8] = read-out: MIC P. aeruginosa (value in brackets), n = 3, MHB, 22 h
[9] = 22 h, read-out: MIC E. faecium, mean ± standard error, n = 3, TSY, 22 h
[10] = mean ± standard error, n = 3, TSY
[11] = Escherichia coli, n = 3, MHB, 22 h, read-out: MIC E. coli (value in brackets)
[12] = mean ± standard error, n = 3, MHB
[13] = mean ± standard error, n = 3, MHB, 22 h, read-out: MIC E. coli
[14] = read-out: MIC K. pneumoniae (value in brackets)

| Structure (SMILES) | MIC [1, 7] [µg/mL] | MIC A. baumannii [1] [µM] | EC50 [1] [µM] | MIC [2, 8] [µg/mL] | MIC P. aeruginosa [2] [µM] | EC50 [2] [µM] | MIC [3, 9] [µM] | EC50 [3, 10] [µM] | MIC [4, 11] [µg/mL] | EC50 [4, 12] [µM] | MIC [4, 13] [µM] | MIC [5, 14] [µg/mL] | MIC K. pneumoniae [5] [µM] | EC50 [5] [µM] | MIC [6] [µg/mL] | MIC MRSA [6] [µM] | EC50 [6] [µM] | further results |
| --- | --- | --- | --- | --- | --- | --- | --- | --- | --- | --- | --- | --- | --- | --- | --- | --- | --- | --- |
| CC(C)[n+]1cn(Cc2ccccn2)c2ccccc21.[Br-] [L3b, 1-Isopropyl-3-(pyridin-2-ylmethyl)-benzimidazolium Bromide] | ≥ 128 | > 250 | > 250 | > 128 | > 250 | > 250 | ≥ 250 | ≥ 250 | > 128 | > 250 | > 250 | > 128 | > 250 | > 250 | > 128 | > 250 | > 250 | – |
| CC(C)[n+]1cn(Cc2ccccn2)c2ccccc21.[I-] [L3c, 1-Isopropyl-3-(pyridin-2-ylmethyl)-benzimidazolium Iodide] | > 128 | > 250 | > 250 | > 128 | ≥ 250 | ≥ 250 | – | > 250 | > 128 | > 250 | > 250 | > 128 | > 250 | > 250 | > 128 | > 250 | > 250 | MIC ([3]; 22 h, read-out: MIC E. faecium (value in brackets)): > 128 µg/mL; MIC E. faecium ([3]; mean ± standard error, n = 3, TSY, 22 h): > 250 µM |
| NCC[C@H](O)C(=O)N[C@@H]1C[C@H](N)[C@@H](O[C@H]2O[C@H](CN)[C@@H](O)[C@H](O)[C@H]2O)[C@H](O)[C@H]1O[C@H]1O[C@H](CO)[C@@H](O)[C@H](N)[C@H]1O [amikacin, reference compound] | – | – | – | – | – | – | – | – | – | – | – | – | – | – | – | – | – | MIC ([2]; read-out: MIC P. aeruginosa): 4.4 ± 1.3 µM; MIC ([2]; read-out: MIC P. aeruginosa (value in brackets)): 2.6 µg/mL |
| O=C(O)c1cn(C2CC2)c2cc(N3CCNCC3)c(F)cc2c1=O [ciprofloxacin, reference compound] | 0.2 | – | – | – | – | – | 15.1 ± 1 | – | – | – | – | 0.8 | – | – | – | – | – | MIC ([1]; read-out: MIC A. baumannii): 0.63 ± 0.22 µM; MIC ([3]; 22 h, read-out: MIC E. faecium (value in brackets), n = 3, TSY, 22 h): 5 µg/mL; MIC ([4]; Escherichia coli, 22 h, read-out: MIC E. coli): 0.5 µM; MIC ([4]; Escherichia coli, 22 h, read-out: MIC E. coli (value in brackets)): 0.16 µg/mL; MIC ([4]; Escherichia coli, read-out: MIC E. coli DSM 1116 in MHB): 0.47 µM; MIC ([4]; Escherichia coli, read-out: MIC E. coli DSM 1116 in MHB + tryptone): 0.47 µM; MIC ([4]; Escherichia coli, read-out: MIC E. coli DSM 1116 in MHB + yeast extract): 0.47 µM; MIC ([5]; read-out: MIC K. pneumoniae): 2.5 ± 0.9 µM |
